What was measured:
Mus musculus [1] = species on record: Mus musculus; experiment: animal or person; type: functional; details: sc
Description: Subcutaneous dose at which 50% of the mouse start to lick their paws later than 10 s using hot plate assay.

Mus musculus [2] = species on record: Mus musculus; experiment: animal or person; type: functional; details: po
Description: Peroral dose at which 50% of the mouse start to lick their paws later than 10 s using hot plate assay.

Mus musculus [3] = species on record: Mus musculus; experiment: animal or person; type: functional; details: in Rattus norvegicus, po, 1 h
Description: Peroral dose inhibiting acetic acid induced writhing 1 hr after administration in 50% of the rats.

Mus musculus [4] = species on record: Mus musculus; experiment: animal or person; type: functional; details: in Rattus norvegicus, po, 8 h
Description: Peroral dose inhibiting acetic acid induced writhing 8 hr after administration in 50% of the rats.

Mus musculus [5] = species on record: Mus musculus; experiment: animal or person; type: functional; details: in Rattus norvegicus, po, 24 h
Description: Peroral dose inhibiting acetic acid induced writhing 24 hr after administration in 50% of the rats.

Mus musculus [6] = species on record: Mus musculus; experiment: animal or person; type: functional; details: in Rattus norvegicus, sc, 0.5 h
Description: Subcutaneous dose inhibiting acetic acid induced writhing 0.5 hr after administration in 50% of the rats.

Mus musculus [7] = species on record: Mus musculus; experiment: animal or person; type: functional; details: in Rattus norvegicus, sc, 8 h
Description: Subcutaneous dose inhibiting acetic acid induced writhing 8 hr after administration in 50% of the rats.

[8] = Levels of homovanillic acid (HVA) in rat brain 2 hour after an intraperitoneal injection dose; type: ADME, tissue-based; details: in vivo, ip
Rattus norvegicus [9] = species on record: Rattus norvegicus; experiment: animal or person; details: ip
Description: (§1) Intraperitoneal dose producing a block of avoidance response in 50% of the rats.

Rattus norvegicus [10] = species on record: Rattus norvegicus; experiment: dose producing 50% of the theoretically obtained maximum catalepsy in rats; type: functional
Mus musculus [11] = experiment: Intraperitoneal dose inhibiting acetic acid induced writhing in 50% of mice; type: functional
Rattus norvegicus [12] = species on record: Rattus norvegicus
Description: as §1

Mus musculus [13] = species on record: Mus musculus; experiment: Dose at which 50% of the mouse show not more than one extension movement.; type: functional
[14] = Rattus norvegicus, read-out: ED50
[15] = Mus musculus, ip, read-out: ED50

`CCCC[C@]1(OC(C)=O)CCN2C[C@H](c3ccccc3)CC[C@H]2C1` showed an ED50 (Mus musculus [1]) of 100 mg/kg, an ED50 (Mus musculus [2]) of 551 mg/kg and an ED50 (Mus musculus [3]) of 10 mg/kg.

`CCCC[C@@]1(OC(C)=O)CCN2C[C@H](c3ccccc3)CC[C@H]2C1` gave an ED50 (Mus musculus [1]) of 1.1 mg/kg, an ED50 (Mus musculus [4]) of 4.9 mg/kg and an ED50 (Mus musculus [5]) of 69 mg/kg. The ED50 (Mus musculus [6]) was 0.14 mg/kg and the ED50 (Mus musculus [7]) was 3.8 mg/kg.

With `CC[C@]1(O)CCN2C[C@@H](c3ccc(Cl)cc3Cl)CC[C@@H]2C1` the HVA level [8] was 284% and the ED50 (Rattus norvegicus [9]) was greater than 30 mg/kg.

`CC(C)(C)[C@]1(O)CCN2C[C@@H](c3ccccc3Cl)CC[C@@H]2C1` gave an ED50 (Rattus norvegicus [10]; [14]) of 20.2 mg/kg, an HVA level [8] of 449% and an ED50 (Rattus norvegicus [9]) of 10 mg/kg.

For `C[C@]1(O)CCN2C[C@@H](c3ccc(Cl)cc3Cl)CC[C@@H]2C1`, the HVA level [8] was 157% and the ED50 (Rattus norvegicus [9]) was greater than 30 mg/kg.

For `CC(C)(C)[C@]1(O)CCN2C[C@@H](c3ccccc3)CC[C@@H]2C1.Cl`, the HVA level [8] was 308% and the ED50 (Rattus norvegicus [9]) was greater than 30 mg/kg.

`CC(C)(C)[C@]1(O)CCN2C[C@@H](c3ccc(Cl)cc3)CC[C@@H]2C1.Cl` showed an ED50 (Rattus norvegicus [10]; [14]) of 16 mg/kg, an HVA level [8] of 290% and an ED50 (Rattus norvegicus [9]) of 13.5 mg/kg.

With `CCCC[C@@]1(OC(C)=O)CCN2C[C@@H](c3ccccc3)CC[C@@H]2C1.Cl` the ED50 (Mus musculus [11]; [15]) was greater than 100 mg/kg.

With `CCCC[C@]1(O)CCN2C[C@@H](c3ccc(Cl)cc3Cl)CC[C@@H]2C1.Cl` the ED50 (Rattus norvegicus [10]; [14]) was greater than 10 mg/kg, the HVA level [8] was 150% and the ED50 (Rattus norvegicus [9]) was 42 mg/kg.

`CCC(C)[C@]1(O)CCN2C[C@@H](c3ccc(Cl)cc3Cl)CC[C@@H]2C1.Cl` (some centres not stated) showed an ED50 (Rattus norvegicus [10]; [14]) of 5.5 mg/kg, an HVA level [8] of 467% and an ED50 (Rattus norvegicus [9]) of 6.25 mg/kg.

With `Cl.O[C@]1(c2ccccc2)CCN2C[C@@H](c3ccccc3Cl)CC[C@@H]2C1` the HVA level [8] was 99% and the ED50 (Rattus norvegicus [9]) was greater than 30 mg/kg.

Work on `CC(=O)O[C@@]1(C(C)(C)C)CCN2C[C@@H](c3ccccc3)CC[C@@H]2C1.Cl` yielded an ED50 (Mus musculus [11]; [15]) of 2.6 mg/kg.

`CC(C)(C)[C@]1(O)CCN2C[C@@H](c3ccc(Cl)c(Cl)c3)CC[C@@H]2C1.Cl` showed an ED50 (Rattus norvegicus [10]; [14]) of 30 mg/kg, an HVA level [8] of 190% and an ED50 (Rattus norvegicus [9]) greater than 30 mg/kg.

With `CC(=O)O[C@@]1(c2ccccc2)CCN2C[C@@H](c3ccccc3Cl)CC[C@@H]2C1.Cl` the ED50 (Mus musculus [11]; [15]) was 2.8 mg/kg.

Work on `CC(=O)O[C@@]1(C(C)(C)C)CCN2C[C@@H](c3ccc(Cl)cc3Cl)CC[C@@H]2C1.Cl` yielded an ED50 (Mus musculus [11]; [15]) of 300 mg/kg.

Work on `CC(C)(C)[C@]1(O)CCN2C[C@@H](c3cccc(Cl)c3)CC[C@@H]2C1.Cl` yielded an ED50 (Rattus norvegicus [10]; [14]) greater than 30 mg/kg, an HVA level [8] of 103% and an ED50 (Rattus norvegicus [9]) greater than 30 mg/kg.

Compound `CC(C)[C@]1(O)CCN2C[C@@H](c3ccc(Cl)cc3Cl)CC[C@@H]2C1.Cl` has an ED50 (Rattus norvegicus [10]; [14]) of 9.2 mg/kg, an HVA level [8] of 280% and an ED50 (Rattus norvegicus [9]) of 17.5 mg/kg.

Work on `CC(C)(C)[C@]1(O)CCN2C[C@@H](c3ccc(C(F)(F)F)cc3)CC[C@@H]2C1.Cl` yielded an ED50 (Rattus norvegicus [10]; [14]) greater than 30 mg/kg, an HVA level [8] of 369% and an ED50 (Rattus norvegicus [9]) of 18.5 mg/kg.

`CC(=O)O[C@@]1(C(C)(C)C)CCN2C[C@@H](c3ccc(Cl)cc3)CC[C@@H]2C1.Cl` gave an ED50 (Mus musculus [11]; [15]) of 4 mg/kg.

`Cl.O[C@@]1(c2ccccc2)CCN2C[C@@H](c3ccccc3Cl)CC[C@@H]2C1` showed an ED50 (Rattus norvegicus [10]; [14]) greater than 10 mg/kg, an HVA level [8] of 340% and an ED50 (Rattus norvegicus [9]) of 7 mg/kg.

`CC(C)(C)[C@]1(O)CCN2C[C@@H](c3c(Cl)cccc3Cl)CC[C@@H]2C1.Cl` showed an ED50 (Rattus norvegicus [10]; [14]) greater than 30 mg/kg and an ED50 (Rattus norvegicus [9]) greater than 30 mg/kg.

`CC(=O)O[C@]1(C(C)(C)C)CCN2C[C@H](c3ccccc3Cl)CC[C@@H]2C1.Cl` showed an ED50 (Mus musculus [11]; [15]) of 28 mg/kg.

With `CC(C)(C)[C@]1(O)CCN2C[C@@H](c3ccc(Cl)cc3Cl)CC[C@@H]2C1.Cl` (stereo in doubt; 5e) the ED50 (Rattus norvegicus [10]) was 12.2 mg/kg, the HVA level [8] was 557% and the ED50 (Rattus norvegicus [12]) was 6.4 mg/kg.

With `CC(=O)O[C@@]1(C(C)(C)C)CCN2C[C@@H](c3ccccc3Cl)CC[C@@H]2C1.Cl` (stereo in doubt; 23) the ED50 (Mus musculus [11]; [15]) was 36 mg/kg.

`CC(C)(C)[C@]1(O)CCN2C[C@@H](c3ccc(Cl)cc3Cl)CC[C@@H]2C1.Cl` (stereo in doubt; (+)-5e) gave an ED50 (Rattus norvegicus [10]) of 28.4 mg/kg, an HVA level [8] of 283% and an ED50 (Rattus norvegicus [12]) greater than 30 mg/kg.

For `CC(C)(C)[C@@]1(O)CCN2C[C@H](c3ccccc3Cl)CC[C@@H]2C1.Cl` (stereo in doubt; (+)-5g), the ED50 (Mus musculus [11]) was greater than 30 mg/kg.

For `CCCC[C@@]1(O)CCN2C[C@H](c3ccccc3)CC[C@@H]2C1` (stereo in doubt; (+)-19), the ED50 (Mus musculus [11]; [15]) was greater than 30 mg/kg.

For `CC(C)(C)[C@]1(O)CCN2C[C@@H](c3ccc(Cl)cc3Cl)CC[C@@H]2C1.Cl` (stereo in doubt; (-)-5e), the ED50 (Rattus norvegicus [10]) was 4.4 mg/kg, the HVA level [8] was 350% and the ED50 (Rattus norvegicus [12]) was 4.7 mg/kg.

In the case of `CC(C)(C)[C@@]1(O)CCN2C[C@H](c3ccccc3Cl)CC[C@@H]2C1.Cl` (stereo in doubt; (-)-5g), the ED50 (Mus musculus [11]) was greater than 10 mg/kg.

In the case of `CC(=O)O[C@@]1(C(C)(C)C)CCN2C[C@@H](c3ccccc3Cl)CC[C@@H]2C1.Cl` (stereo in doubt; (-)-23), the ED50 (Mus musculus [13]) was greater than 30 mg/kg.

`CN1CC[C@]23c4c5ccc(O)c4O[C@H]2[C@@H](O)C=C[C@H]3[C@H]1C5.Cl` [MORPHINE HYDROCHLORIDE] gave an ED50 (Mus musculus [1]) of 9.6 mg/kg, an ED50 (Mus musculus [4]) of 86 mg/kg and an ED50 (Mus musculus [5]) greater than 550 mg/kg. It also gave an ED50 (Mus musculus [6]) of 0.96 mg/kg, an ED50 (Mus musculus [2]) of 36 mg/kg and an ED50 (Mus musculus [7]) of 135 mg/kg. The ED50 (Mus musculus [3]) was 2.4 mg/kg.
